According to ChEMBL document CHEMBL1201862, “PubChem BioAssay data set” (2004):
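1) Cells in 96-well plates. 2) Compound, 48 h, 5 concentrations. 3) Linear interpolation between surrounding doses. 4) Unreached endpoint = highest concentration. GI50 = concentration required for 50% inhibition of growth.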 Calls of active or inactive are those of the source. Cut-off read from the data, not from the text of the source: active = GI50 up to about 1.1 µM and inactive = higher.

Experiments:
Experiment in all cases: inhibition of tumour cell growth, NCI panel, 48 h
[1] = tested on: A498
[2] = tested on: A549
[3] = tested on: ACHN
[4] = tested on: HL-60
[5] = tested on: HOP-62
[6] = tested on: HOP-92
[7] = tested on: HT-29
[8] = tested on: KM12
[9] = tested on: LOX IMVI
[10] = tested on: MDA-MB-435
[11] = tested on: Malme-3M
[12] = tested on: NCI/ADR-RES
[13] = tested on: OVCAR-4
[14] = tested on: PC-3
[15] = tested on: RXF 393
[16] = tested on: SK-OV-3
[17] = tested on: SN12C
[18] = tested on: SW-620
[19] = tested on: UACC-257
[20] = tested on: UACC-62

Measured: GI50

O=c1c2c(F)c(F)c(F)c(F)c2sc2nccn12
inactive: [1] 19.2 µM | [2] 19.5 µM | [3] 16.4 µM | [4] 2.06 µM | [5] 22.4 µM | [6] 19.9 µM | [7] 16.9 µM | [8] 17.1 µM | [9] 12.3 µM | [10] 14.9 µM | [11] 17.3 µM | [12] 26.8 µM | [13] 19.5 µM | [14] 18.4 µM | [15] 17.7 µM | [16] 18.9 µM | [17] 18.5 µM | [18] 17.3 µM | [19] 13 µM | [20] 14.7 µM

COc1cc(/C=C2\N=C(c3ccccc3)N(c3ccc(S(=O)(=O)Nc4nccs4)cc3)C2=O)ccc1O
inactive: [1] > 100 µM | [2] > 100 µM | [3] > 100 µM | [4] 51.2 µM | [5] 61.8 µM | [6] 40.7 µM | [7] 59.7 µM | [8] > 100 µM | [9] 40.3 µM | [10] 95.3 µM | [11] > 100 µM | [12] > 100 µM | [13] > 100 µM | [14] 82.6 µM | [15] 62.2 µM | [16] > 100 µM | [17] > 100 µM | [18] 77.6 µM | [19] > 100 µM | [20] 43.9 µM

CC[S+]1C2=C(CC(C)(C)CC2=O)[N-]c2ccccc21 (stereo not given)
inactive: [1] > 100 µM | [2] > 100 µM | [3] > 100 µM | [4] > 100 µM | [5] > 100 µM | [6] > 100 µM | [7] > 100 µM | [8] > 100 µM | [9] > 100 µM | [10] > 100 µM | [11] > 100 µM | [12] > 100 µM | [13] > 100 µM | [14] > 100 µM | [15] > 100 µM | [16] > 100 µM | [17] > 100 µM | [18] > 100 µM | [19] > 100 µM | [20] > 100 µM

O=C(N/C(=C\c1ccccc1)C1Nc2ccccc2C(=O)O1)c1ccccc1 (stereo not given)
inactive: [1] > 100 µM | [2] 87.5 µM | [3] 39.5 µM | [4] 12.4 µM | [5] 20.4 µM | [6] > 100 µM | [7] 32.7 µM | [8] 15.8 µM | [9] 18.2 µM | [10] 34.5 µM | [11] 16.6 µM | [12] 25.9 µM | [13] 53.7 µM | [14] > 100 µM | [15] 23.6 µM | [16] 55.6 µM | [17] 28.2 µM | [18] 23.6 µM | [19] 20.6 µM | [20] 27.5 µM

NS(=O)(=O)c1cc(C(=O)O)c(Cl)c([N+](=O)[O-])c1Cl
inactive: [1] > 100 µM | [2] > 100 µM | [3] > 100 µM | [4] > 100 µM | [5] > 100 µM | [6] > 100 µM | [7] > 100 µM | [8] > 100 µM | [9] > 100 µM | [10] > 100 µM | [11] > 100 µM | [12] > 100 µM | [13] > 100 µM | [14] > 100 µM | [15] > 100 µM | [16] > 100 µM | [17] > 100 µM | [18] > 100 µM | [19] > 100 µM | [20] > 100 µM

COc1ccccc1C(=O)Nc1ccc(Cl)c(C(=O)OC(C)C)c1
inactive: [1] > 50.9 µM | [2] 40.2 µM | [3] 16 µM | [4] > 41.1 µM | [5] 48 µM | [6] 42.3 µM | [7] 27.4 µM | [8] 25.9 µM | [9] 43 µM | [10] > 100 µM | [11] 4.45 µM | [12] 16.4 µM | [13] 42.4 µM | [14] 83.2 µM | [15] 25 µM | [16] 99.5 µM | [17] 52.2 µM | [18] > 61.1 µM | [19] 30.5 µM | [20] 25.9 µM

O=c1[nH]nc(-c2ccccc2)n1/N=C/c1ccco1
inactive: [1] > 100 µM | [2] > 100 µM | [3] > 100 µM | [4] > 100 µM | [5] > 100 µM | [6] > 100 µM | [7] > 100 µM | [8] > 100 µM | [9] > 100 µM | [10] > 100 µM | [11] > 100 µM | [12] > 100 µM | [13] 30.1 µM | [14] > 100 µM | [15] > 100 µM | [16] > 100 µM | [17] 29.2 µM | [18] > 100 µM | [19] > 100 µM | [20] 83.2 µM
